Experimental data taken from article PMC9067978, “Design, synthesis, and molecular docking studies of novel pomalidomide-based PROTACs as potential anti-cancer agents targeting EGFR^WT and EGFR^T790M” (Journal of Enzyme Inhibition and Medicinal Chemistry, 2022).
“Also recorded” adds a separate entry of the source.

Columns and labels:
[1] = target: T1, EGFR^WT (Homo sapiens, UniProt P00533); experiment: EGFR^WT kinase inhibitory assay (HTRF); assay type: biochemical; details: ATP 1.65 µM, mean ± S.D of three experiments
T1 construct: purchased Sigma
Method: (§1) This test used HTRF[44] assay with EGFR^WT and EGFR^T790M (Sigma). For the first 5 minutes, the evaluated compounds were incubated with EGFR^WT and/or EGFR^T790M and their substrates in the enzymatic buffer. […] The assay was performed at 37 °C for 30 minutes. The addition of EDTA-containing detection reagents halted the process. After one hour detection period, GraphPad Prism 5.0 was used to calculate the IC50 values. For each concentration, three separate trials were carried out.

[2] = target: T2, EGFR^T790M (Homo sapiens, UniProt P00533, T790M); experiment: EGFR^T790M kinase inhibitory assay (HTRF); assay type: biochemical; details: ATP 1.65 µM, mean ± S.D of three experiments, read-out: EGFR^790M IC50
T2 construct: purchased Sigma
Method: as §1

[3] = target: T3, EGFR (Homo sapiens, UniProt P00533); experiment: Western blotting, EGFR degradation in A549 cells; assay type: cell-based
T3 construct: EGFR degradation activities of compounds in A549 cells; endogenous in cells; host or cells: A549
Method: Following this, the target compounds 15–21 tethering various E3 ligases ligand were chosen as representative PROTACs for further degradation study based on temporal data.
Figure 4. (A) EGFR degradation activities of compounds in A549 cells. Cells were treated for 48 h with concentration of 0.1 and 1 µM. (B) Effects of concentration-dependent EGFR degradation by compounds 15–21 in A549 cell lines. Cells were treated for 48 h with a concentration from 1 nM to 10 µM. EGFR protein was examined by Western blotting analysis and EGFR degradation rate was quantified by densitometry and normalised to the corresponding density of β-actin protein (n ¼ 3). TEXT PRINTED IN THE PICTURE: (B) Comp 15: DC50 = 43.4 nm | (B) Comp 16: DC50= 32.9 nm DOUBTS OF THE COPYIST ABOUT THIS PICTURE: Comp 15, DC50: 43.4 is small blurred print; the 3 could be 8 and the digits are not certain / Comp 16, DC50: 32.9 is small blurred print; the 3 could be 8 and the 9 could be 8 or 0
We set nine concentration gradients ranging from […] to 10 µM to determine the degradation activity of all tested compounds and calculated the DC50 (concentration that caused deletion of 50% of EGFR) values.
(§2) At a concentration of 100 nM, the time-dependent degradation activities of compounds 15–21 were also examined (Figure 5(A)).
Figure 5. (A) EGFR time-dependent degradation by compound 16 in A549 cell lines. Cells were treated with100 nM of 15–21 for indicated time points. Western blotting was used to evaluate EGFR protein, and densitometry was used to measure EGFR degradation, which was adjusted to the density of β-actin protein (n ¼2). (B) Compounds 15 and 16 have EGFR degradation and phosphorylation inhibitory action in A549 cells. The cells were exposed to concentrations of 0.1, 0.3, and 1 µM. Erlotinib were utilised for comparison. TEXT PRINTED IN THE PICTURE: (A) Comp 15: Dmax = 85 % @ 96 h; Degradation: 9 (4 h; 100 nM); Degradation: 22 (8 h; 100 nM); Degradation: 42 (12 h; 100 nM); Degradation: 83 (24 h; 100 nM); Degradation: 84 (36 h; 100 nM); Degradation: 82 (48 h; 100 nM); Degradation: 82 (72 h; 100 nM); Degradation: 85 (96 h; 100 nM) | (A) Comp 16: Dmax = 96 % @72 h; Degradation: 32 (4 h; 100 nM); Degradation: 43 (8 h; 100 nM); Degradation: 67 (12 h; 100 nM); Degradation: 69 (24 h; 100 nM); Degradation: 78 (36 h; 100 nM); Degradation: 85 (48 h; 100 nM); Degradation: 96 (72 h; 100 nM); Degradation: 94 (96 h; 100 nM) DOUBTS OF THE COPYIST ABOUT THIS PICTURE: Comp 15, Dmax: print is blurred, 85 % @ 96 h is the best reading (85 or 86) / Comp 16, Dmax: print is small and blurred, 96 % @72 h is the best reading (96 or 95; the % sign is unclear) / Comp 15, Degradation row: print is blurred, 83/84/82/82/85 are best readings (3, 5, 8 are hard to tell apart) / Comp 16, Degradation row: print is blurred, 67/69/78/85/96/94 are best readings (5, 6, 8, 9 are hard to tell apart) / The Degradation rows are printed under the blot lanes with no unit. The value 0 under the 0.1 % DMSO control lane was not assigned to any compound.
Cells were seeded in 6-well plates at 1 × 10^6 per well, incubated at 37 °C with 5% CO2 for 24 h before drug exposure. Cells were treated with different concentrations of synthesised compounds for […], then collected and suspended in lysis buffer (Beyotime) and centrifuged for 20 min at 12000 rpm, later removed the insoluble material. […] The results were detected by an enhanced chemiluminescence system (Mill-pore). […]

[4] = test system: EGFR phosphorylation; experiment: Western blotting, EGFR phosphorylation in A549 cells; assay type: cell-based, human; details: A549 cells, 0.1, 0.3 and 1 µM, erlotinib for comparison
Method: as §2
(§3) Figure 5. (A) EGFR time-dependent degradation by compound 16 in A549 cell lines. Cells were treated with100 nM of 15–21 for indicated time points. Western blotting was used to evaluate EGFR protein, and densitometry was used to measure EGFR degradation, which was adjusted to the density of β-actin protein (n ¼2). (B) Compounds 15 and 16 have EGFR degradation and phosphorylation inhibitory action in A549 cells. The cells were exposed to concentrations of 0.1, 0.3, and 1 µM. Erlotinib were utilised for comparison. […]
(§4) Cells were seeded in 6-well plates at 1 × 10^6 per well, incubated at 37 °C with 5% CO2 for 24 h before drug exposure. […] The results were detected by an enhanced chemiluminescence system (Mill-pore). […]

[5] = test system: Akt phosphorylation; experiment: Western blotting, Akt phosphorylation in A549 cells; assay type: cell-based, human; details: A549 cells, 0.1, 0.3 and 1 µM, erlotinib for comparison
Method: as §2, §3, §4

[6] = test system: A549; experiment: MTT anti-proliferative assay, A549; details: Homo sapiens, A549, read-out: IC50 A549
Method: (§5) The anti-proliferative activity was quantified in the following way. At a density of 3–8 × 10^3 cells per well, human cancer cell lines were introduced to 96-well plates. The wells were then incubated at 37 °C for 12 hours in 5% CO2 incubator. To determine the DMSO content, the culture media was swapped with 0.1 ml of fresh medium containing graded amounts of the test compounds for each well. Incubation time for the wells was two days. The cells were then cultured in 100 µl MTT solution (5 µg ml^−1) for another 4 hours in each well.
(§6) The absorbance of each well was measured at 490 nm with an automated ELISA reader system (TECAN, CHE) after MTT-formazan crystals were dissolved in 100 µl of DMSO. The IC50 values were calculated using nonlinear regression fitting models (Graph Pad, Prism Version 5). The results were expressed as means ± SD and were based on the average of three separate, duplicate trials.

[7] = test system: MCF-7; experiment: MTT anti-proliferative assay, MCF-7; details: Homo sapiens, MCF7, read-out: IC50 MCF-7
Method: as §5, §6

[8] = test system: HepG-2; experiment: MTT anti-proliferative assay, HepG-2; details: Homo sapiens, HepG2, read-out: IC50 HepG-2
Method: as §5, §6

[9] = test system: HCT-116; experiment: MTT anti-proliferative assay, HCT-116; details: Homo sapiens, HCT-116, read-out: IC50 HCT-116
Method: as §5, §6

T2 sequence (P00533 25-1210 T790M): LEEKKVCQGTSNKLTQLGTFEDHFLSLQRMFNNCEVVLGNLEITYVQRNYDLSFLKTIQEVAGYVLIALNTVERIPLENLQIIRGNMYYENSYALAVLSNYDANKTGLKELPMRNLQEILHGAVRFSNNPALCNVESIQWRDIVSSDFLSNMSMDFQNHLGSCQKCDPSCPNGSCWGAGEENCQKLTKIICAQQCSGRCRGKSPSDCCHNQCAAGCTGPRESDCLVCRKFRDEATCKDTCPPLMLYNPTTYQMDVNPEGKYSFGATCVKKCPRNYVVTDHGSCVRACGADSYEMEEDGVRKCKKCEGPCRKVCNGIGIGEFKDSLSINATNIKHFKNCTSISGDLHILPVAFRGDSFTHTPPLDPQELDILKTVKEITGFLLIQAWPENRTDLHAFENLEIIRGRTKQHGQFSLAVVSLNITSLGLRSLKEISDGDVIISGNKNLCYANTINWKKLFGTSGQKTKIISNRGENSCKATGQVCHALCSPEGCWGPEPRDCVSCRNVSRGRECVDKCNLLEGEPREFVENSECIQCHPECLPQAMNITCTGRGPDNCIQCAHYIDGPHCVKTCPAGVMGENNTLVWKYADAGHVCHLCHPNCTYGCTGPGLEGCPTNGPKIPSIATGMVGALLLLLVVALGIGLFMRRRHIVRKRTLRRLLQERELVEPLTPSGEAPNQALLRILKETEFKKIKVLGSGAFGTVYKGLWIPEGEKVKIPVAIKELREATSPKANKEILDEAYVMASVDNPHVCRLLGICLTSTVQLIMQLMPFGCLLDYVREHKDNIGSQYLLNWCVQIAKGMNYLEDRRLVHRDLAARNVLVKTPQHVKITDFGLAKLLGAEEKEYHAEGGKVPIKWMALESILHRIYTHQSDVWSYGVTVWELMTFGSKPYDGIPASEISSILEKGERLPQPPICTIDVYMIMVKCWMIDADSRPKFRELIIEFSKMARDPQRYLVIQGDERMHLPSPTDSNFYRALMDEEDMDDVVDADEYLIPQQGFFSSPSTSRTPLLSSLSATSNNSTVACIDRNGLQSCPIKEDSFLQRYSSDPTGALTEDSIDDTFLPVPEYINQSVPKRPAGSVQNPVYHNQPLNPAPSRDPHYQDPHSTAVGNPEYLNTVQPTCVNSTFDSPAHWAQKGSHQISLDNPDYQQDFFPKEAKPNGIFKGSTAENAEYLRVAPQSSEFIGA
T1 sequence (P00533 25-1210): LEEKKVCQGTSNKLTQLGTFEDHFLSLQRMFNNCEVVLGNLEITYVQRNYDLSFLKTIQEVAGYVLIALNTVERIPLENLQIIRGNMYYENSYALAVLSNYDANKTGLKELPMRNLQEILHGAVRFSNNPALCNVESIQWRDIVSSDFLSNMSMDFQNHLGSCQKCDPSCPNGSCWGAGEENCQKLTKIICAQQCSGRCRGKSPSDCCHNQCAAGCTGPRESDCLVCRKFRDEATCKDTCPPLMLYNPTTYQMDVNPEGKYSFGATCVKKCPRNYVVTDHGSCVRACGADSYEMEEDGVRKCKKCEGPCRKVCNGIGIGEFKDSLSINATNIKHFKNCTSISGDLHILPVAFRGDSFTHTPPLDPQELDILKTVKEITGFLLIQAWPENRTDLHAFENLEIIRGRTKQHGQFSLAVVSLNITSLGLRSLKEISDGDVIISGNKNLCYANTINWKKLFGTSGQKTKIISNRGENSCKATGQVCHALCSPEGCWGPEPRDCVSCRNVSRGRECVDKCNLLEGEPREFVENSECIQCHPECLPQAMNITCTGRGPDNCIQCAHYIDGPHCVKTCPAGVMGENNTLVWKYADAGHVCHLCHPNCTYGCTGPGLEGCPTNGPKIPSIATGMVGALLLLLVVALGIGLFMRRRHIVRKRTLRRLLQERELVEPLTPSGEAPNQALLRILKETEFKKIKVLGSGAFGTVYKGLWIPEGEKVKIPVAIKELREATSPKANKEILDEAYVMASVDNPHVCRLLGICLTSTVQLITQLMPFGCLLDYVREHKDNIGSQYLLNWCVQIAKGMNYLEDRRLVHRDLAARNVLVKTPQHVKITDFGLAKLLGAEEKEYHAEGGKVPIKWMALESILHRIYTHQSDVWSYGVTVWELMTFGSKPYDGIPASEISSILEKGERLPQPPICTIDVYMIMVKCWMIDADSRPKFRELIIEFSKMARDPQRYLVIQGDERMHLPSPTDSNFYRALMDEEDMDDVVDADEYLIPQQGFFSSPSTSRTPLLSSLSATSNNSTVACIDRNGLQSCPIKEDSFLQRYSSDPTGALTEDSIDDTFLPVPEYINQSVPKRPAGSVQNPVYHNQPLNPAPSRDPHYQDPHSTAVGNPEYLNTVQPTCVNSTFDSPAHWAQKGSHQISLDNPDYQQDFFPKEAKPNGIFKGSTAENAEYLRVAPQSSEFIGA
T3 sequence (P00533 25-1210): as above

| Structure (SMILES) | IC50 [1] [µM] | IC50 [2] [µM] | Dmax at 0.1 µM ([3]; A549, A549 cells, 100 nM, time course, reached at 96 h (15) and 72 h (16), read-out: Dmax, maximum EGFR degradation rate) [%] | DC50 ([3]; A549 cells, 48 h, Western blotting densitometry, read-out: DC50 (concentration that caused deletion of 50% of EGFR)) [µM] | inhibition of EGFR phosphorylation, in words [4] | inhibition of Akt phosphorylation, in words [5] | IC50 [6] [µM] | IC50 [7] [µM] | IC50 [8] [µM] | IC50 [9] [µM] |
| --- | --- | --- | --- | --- | --- | --- | --- | --- | --- | --- |
| O=C1CCC(N2C(=O)c3cccc(NC(=O)COCCOCCn4nc5[nH]c6ccccc6nc-5c4=O)c3C2=O)C(=O)N1 (centres unmarked) [Compound 15, N-(2-(2,6-dioxopiperidin-3-yl)-1,3-dioxoisoindolin-4-yl)-2-(2-(2-(3-oxo-3,9-dihydro-2H-pyrazolo[3,4-b]quinoxalin-2-yl)ethoxy)ethoxy)acetamide] | 0.22 ± 0.05 | 6.89 ± 0.31 | 86 | 0.0434 | effectively displayed inhibitory activity | effectively displayed inhibitory activity; also recorded: comparable to erlotinib | 3.09 ± 0.15 | 7.87 ± 0.31 | 3.89 ± 0.05 | 6.19 ± 0.27 |
| O=C1CCC(N2C(=O)c3cccc(NC(=O)COCCOCCOCCNC(=O)c4nc5ccccc5[nH]c4=O)c3C2=O)C(=O)N1 (centres unmarked) [Compound 17, N-(2-(2-(2-(2-(2-(2,6-dioxopiperidin-3-yl)-1,3-dioxoisoindolin-4-ylamino)-2-oxoethoxy)ethoxy)ethoxy)ethyl)-3-oxo-3,4-dihydroquinoxaline-2-carboxamide] | 0.19 ± 0.09 | 6.26 ± 0.32 | – | – | – | – | 3.19 ± 0.19 | 7.96 ± 0.35 | 4.09 ± 0.11 | 6.29 ± 0.35 |
| O=C1CCC(N2C(=O)c3cccc(NC(=O)COCCOCCNNC(=O)c4ccc(N=C5C(=O)Nc6ccccc65)cc4)c3C2=O)C(=O)N1 (centres unmarked) [Compound 18, N-(2-(2,6-dioxopiperidin-3-yl)-1,3-dioxoisoindolin-4-yl)-2-(2-(2-(2-(4-((2-oxoindolin-3-ylidene)amino)benzoyl)hydrazineyl)ethoxy)ethoxy)acetamide] | 0.65 ± 0.03 | 8.16 ± 0.28 | – | – | – | – | 4.67 ± 0.13 | 8.26 ± 0.25 | 6.26 ± 0.56 | 6.79 ± 0.27 |
| CN1C(=O)C(=Nc2ccc(C(=O)NNCCOCCOCC(=O)Nc3cccc4c3C(=O)N(C3CCC(=O)NC3=O)C4=O)cc2)c2ccccc21 (centres unmarked) [Compound 19, N-(2-(2,6-dioxopiperidin-3-yl)-1,3-dioxoisoindolin-4-yl)-2-(2-(2-(2-(4-(1-methyl-2-oxoindolin-3-ylideneamino)benzoyl)hydrazinyl)ethoxy)ethoxy)acetamide] | 3.02 ± 0.12 | 14.1 ± 0.51 | – | – | – | – | 6.54 ± 0.32 | 16.3 ± 0.71 | 8.26 ± 0.36 | 9.12 ± 0.38 |
| O=C(CSc1nc2ccccc2o1)NNCCOCCOCC(=O)Nc1cccc2c1C(=O)N(C1CCC(=O)NC1=O)C2=O (centres unmarked) [Compound 20, 2-(2-(2-(2-(2-(benzo[d]oxazol-2-ylthio)acetyl)hydrazinyl)ethoxy)ethoxy)-N-(2-(2,6-dioxopiperidin-3-yl)-1,3-dioxoisoindolin-4-yl)acetamide] | 0.77 ± 0.05 | 16.3 ± 0.69 | – | – | – | – | 8.27 ± 0.25 | 14.3 ± 0.69 | 9.26 ± 0.39 | 12.3 ± 0.71 |
| O=C(CSc1nc2ccccc2s1)NNCCOCCOCC(=O)Nc1cccc2c1C(=O)N(C1CCC(=O)NC1=O)C2=O (centres unmarked) [Compound 21, 2-(2-(2-(2-(2-(benzo[d]thiazol-2-ylthio)acetyl)hydrazinyl)ethoxy)ethoxy)-N-(2-(2,6-dioxopiperidin-3-yl)-1,3-dioxoisoindolin-4-yl)acetamide] | 2.27 ± 0.16 | 15.3 ± 0.61 | – | – | – | – | 7.27 ± 0.16 | 16.3 ± 0.71 | 9.86 ± 0.37 | 13 ± 0.52 |
| COc1cccc2c1C(=O)c1c(O)c3c(c(O)c1C2=O)C[C@@](O)(C(=O)CO)C[C@@H]3O[C@H]1C[C@H](N)[C@H](O)[C@H](C)O1 [Doxorubicin, reference compound] | – | – | – | – | – | – | – | 7.89 ± 0.55 | 6.22 ± 0.45 | 5.52 ± 0.25 |
| C#Cc1cccc(Nc2ncnc3cc(OCCOC)c(OCCOC)cc23)c1 [Erlotinib, reference compound] | – | – | – | – | – | – | 19.3 ± 1.85 | 21.8 ± 1.85 | 13.1 ± 1.28 | 16.8 ± 1.65 |
